Results reported in patent US12194022B2, “Use of amisulpride as an anti-emetic” (ACACIA PHARMA LIMITED, priority 2010, dated 2025).
“Also recorded” adds a separate entry of the source.

How the values were obtained:
[1] = test system: ferrets; assay: Apomorphine-induced emesis in ferrets; assay type: in vivo, ferret
Method: (§1) The method used to test antiemetic activity preclinically follows that described by Gardner et al. (Brit. J. Pharmacol., 116: 3158-3163, 1995) and uses ferrets.
(§2) Sixty minutes before administration of the test substance, ferrets are placed in individual stainless steel cages (40×50×34 cm) with a grid floor. Then, the animals are challenged with apomorphine (0.25 mg/kg s.c.), morphine (0.4 mg/kg i.p.) or cisplatin (10 mg/kg i.p.) and immediately observed over at least a 2-hour period. Parameters recorded include: number of ferrets showing retches and vomits; latency to first retching; latency to first vomiting; number of retches; vomiting (number of vomits); number of emesis periods and mean duration of emesis periods. Retching is defined as a rhythmic respiratory movement against a closed glottis, while vomiting is defined as a forced expulsion of upper gastrointestinal contents.
Where apomorphine is used as the emetogen, amisulpride (or vehicle) was administered subcutaneously (s.c. 30 minutes before administration of apomorphine). Animals (6 per group) were treated with vehicle or amisulpride at 1, 10, or 100 μg/kg given sub-cutaneously. The observation period was 2 hours after apomorphine administration.

[2] = test system: ferrets; assay: Morphine-induced emesis in ferrets; assay type: in vivo, ferret
Method: as §1, §2
Where morphine is used as the emetogen, amisulpride (n=6 per group) or vehicle (n=6) is administered intravenously 5 minutes before the administration of morphine. The observation period is 2 hours after administration of the morphine.

[3] = test system: ferrets; assay: Cisplatin-induced emesis in ferrets; assay type: in vivo, ferret
Method: as §1, §2
Where cisplatin is used as the emetogen, amisulpride (n=6 per group) or vehicle (n=6) is administered intravenously at least 5 minutes before the administration of cisplatin. The observation period is up to 72 hours, which allows effects on early and late phase emesis to be observed.
More specifically, data are reported from an experiment in which the observation period was 3 hours following cisplatin challenge. Cisplatin induced the occurrence of retches and vomits in 7 and 5 of 9 animals tested respectively. The mean incidences were 79.8±22.2 retches, 3.0±1.1 vomits and 10.7±2.8 emetic periods. Retches and vomits occurred after 85 minutes 6 seconds±7 minutes 53 seconds and 86 minutes 39 seconds±10 minutes 28 seconds respectively amisulpride was given at 0.2, 0.6, 2 and 6 mg/kg. At 0.2 mg/kg the incidence of retches was 23.3±10.8 (a 71% decrease in mean value), of vomits 0.2±0.2 (a 93% decrease) and emesis periods 3.7±2.0 (a 65% decrease). At 0.6 mg/kg the incidence of retches was 62.5±59.0, vomits 1.3±1.1 and emesis periods 3.7±1.3. […] At 2.0 mg/kg the incidence of retches was 3.3±2.5, vomits 0.2±0.2 and emesis periods 0.5±0.3. […] At 6 mg/kg the incidences were 11.7±3.8 retches, 1.2±1.0 vomits and 3.7±1.3 emesis periods.
As indicated above, droperidol is a known agent for the treatment of PONV.

[4] = test system: patients undergoing routine surgery; assay: Phase IIa study of prophylaxis of post-operative nausea and vomiting; assay type: in vivo, human; conditions: single dose at the time of the operation; 24-hour period post-operation
Method: A formulation of the invention was prepared, suitable for intravenous administration. It is a 2.5 mg/ml citrate-buffered solution (nominal pH 5.0) of amisulpride. The composition is given below.
The effects of amisulpride are studied in patients undergoing routine surgery in a randomised, controlled, open-label phase IIa study of efficacy of a single dose as prophylaxis of post-operative nausea and vomiting. The primary endpoint is the incidence of nausea and vomiting in the 24-hour period post-operation. The drug is administered at the time of the operation. The secondary endpoints are the nausea and vomiting rates and severity (measured separately) over 0-2 hours, 2-6 hours and 6-24 hours post-operation. In addition, the use of rescue medication and safety/adverse events, are recorded.

[5] = test system: dog; conditions: cited from earlier work
[6] = UKPAR Special Warnings and Precautions for Use; cited from earlier work
[7] = amisulpride 1 μg/kg s.c. 30 minutes before apomorphine 0.25 mg/kg s.c., 2 hour observation
[8] = amisulpride 3 mg/kg i.v. before morphine, 2 hour observation
[9] = amisulpride 6 mg/kg i.v. before morphine
[10] = amisulpride 6 mg/kg i.v. before morphine, 2 hour observation
[11] = amisulpride 12 mg/kg i.v. before morphine, 2 hour observation
[12] = amisulpride 0.2 mg/kg, 3 hours observation
[13] = amisulpride 0.6 mg/kg, 3 hours observation
[14] = amisulpride 2.0 mg/kg, 3 hours observation
[15] = amisulpride 6 mg/kg, 3 hours observation

CCN1CCCC1CNC(=O)c1cc(S(=O)(=O)CC)c(N)cc1OC (centres unmarked) [Amisulpride]
number of emesis periods [1, 7]: 1.5±0.6 | number of retches [1, 7]: 6.0±2.2 | number of vomits [1, 7]: 0±0 | inhibition of apomorphine emesis ([1]; amisulpride 10 μg/kg s.c.): totally inhibited | inhibition of apomorphine emesis ([1]; amisulpride 100 μg/kg s.c.): totally inhibited | number of retches ([2]; amisulpride 3 mg/kg i.v. 5 minutes before morphine 0.4 mg/kg i.p., 2 hour observation): 28.7±7.1 | incidence of vomits [2, 8]: abolished the incidence of vomits | number of emesis periods [2, 8]: 5.2±1.4 | decrease in emesis periods vs control [2, 9]: 56% | decrease in retches vs control [2, 9]: ~50% | decrease in vomits vs control [2, 9]: 72% | number of emesis periods [2, 10]: 3.3±1.1 | number of retches [2, 10]: 17.8±6.8 | number of vomits [2, 10]: 0.5±0.3 | number of emesis periods [2, 11]: 5.7±1.5 | number of retches [2, 11]: 31.7±11.2 | number of vomits [2, 11]: 0.8±0.4 | effect on emetic effects induced by morphine vs vehicle control ([2]; i.v., 2 hour observation): reduces the emetic effects induced by morphine, in dose-dependent manner | incidence of retches ([3]; amisulpride 0.2 mg/kg i.v. before cisplatin 10 mg/kg i.p., 3 hours observation): 23.3±10.8 | decrease in emesis periods vs control [3, 12]: 65% | decrease in mean retches vs control [3, 12]: 71% | decrease in vomits vs control [3, 12]: 93% | emesis periods [3, 12]: 3.7±2.0 | incidence of vomits [3, 12]: 0.2±0.2 | efficacy compared with droperidol ([3]; amisulpride 0.6 mg/kg (one animal excluded) and 2 mg/kg vs droperidol 3 mg/kg given 5 minutes before cisplatin): better than droperidol at 3 mg/kg; also recorded: more effective than droperidol at 3 mg/kg | emesis periods [3, 13]: 3.7±1.3 | incidence of vomits [3, 13]: 1.3±1.1 | incidence of retches ([3]; amisulpride 0.6 mg/kg, 3 hours observation, one animal had an early, exaggerated response): 62.5±59.0 | emesis periods [3, 14]: 0.5±0.3 | incidence of retches [3, 14]: 3.3±2.5 | incidence of vomits [3, 14]: 0.2±0.2 | emesis periods [3, 15]: 3.7±1.3 | incidence of retches [3, 15]: 11.7±3.8 | incidence of vomits [3, 15]: 1.2±1.0 | effect on emetic effects of cisplatin vs vehicle control ([3]; i.v., 72 hour period, early and late stages): reduces the emetic effects of cisplatin, in dose-dependent manner | effect on nausea, vomiting and retching associated with PONV [4]: demonstrate the effect of amisulpride against the nausea as well as the vomiting and retching associated with PONV | effect on apomorphine-induced vomiting [5]: inhibit apomorphine-induced vomiting in the dog | effect on QT interval [6]: induces a dose dependent prolongation of the QT interval
